Here are results for 34 compounds from patent publication US20260265195A1, “SARM1 MODULATORS, PREPARATIONS, AND USES THEREOF” (SIRONAX LTD, priority 2022, published 2026).

The structures appear in SMILES notation.

This experiment has as its target T1, SARM1 (50-724) (Homo sapiens, UniProt Q6SZW1).
T1 construct: Purified SARM1 (50-724) with a final concentration of 2 nM
T1 sequence (Q6SZW1 50-724): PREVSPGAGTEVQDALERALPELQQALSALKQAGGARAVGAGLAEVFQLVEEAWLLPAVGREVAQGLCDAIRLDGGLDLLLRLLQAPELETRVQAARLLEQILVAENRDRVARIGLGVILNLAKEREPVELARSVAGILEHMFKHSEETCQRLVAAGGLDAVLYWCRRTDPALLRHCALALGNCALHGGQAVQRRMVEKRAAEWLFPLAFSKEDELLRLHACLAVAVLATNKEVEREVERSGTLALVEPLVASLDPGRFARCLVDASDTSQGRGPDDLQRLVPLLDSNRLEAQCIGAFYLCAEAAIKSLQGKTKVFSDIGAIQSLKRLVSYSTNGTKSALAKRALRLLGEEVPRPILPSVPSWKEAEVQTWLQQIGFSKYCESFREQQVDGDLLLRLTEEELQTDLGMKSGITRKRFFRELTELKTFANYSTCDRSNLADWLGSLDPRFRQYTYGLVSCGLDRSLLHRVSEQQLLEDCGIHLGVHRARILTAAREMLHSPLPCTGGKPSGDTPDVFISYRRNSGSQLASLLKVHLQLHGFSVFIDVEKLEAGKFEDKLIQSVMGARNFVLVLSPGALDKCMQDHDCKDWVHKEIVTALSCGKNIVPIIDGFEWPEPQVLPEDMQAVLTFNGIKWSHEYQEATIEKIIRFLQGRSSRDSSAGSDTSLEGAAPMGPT
As to the kind of experiment: SARM1 (50-724) enzymatic assay (NMN-activated NAD+ hydrolysis, LC-MS/MS readout). The format is biochemical. As to conditions: purified SARM1 (50-724) 2 nM, 200 μM NMN activator, 100 μM NAD+ substrate, 1 h at room temperature, read-out: IC50 (SARM1 inhibitory activity). Here is the method: Example II. SARM1 (50-724) Enzymatic Assay
An enzymatic assay was performed in a 384-well plate using Dulbecco's phosphate-buffered saline (PBS) as the reaction buffer. Purified SARM1 (50-724) with a final concentration of 2 nM was pre-incubated with a test compound at 1% DMSO final assay concentration for 15 min at room temperature. The reaction was initiated by adding a mixture of 200 μM nicotinamide mononucleotide (NMN) as activator and 100 μM NAD^+ as substrate. After 1 h of incubation at room temperature, the reaction was terminated with 10 times volume of 70% acetonitrile, then centrifuged at 3800 rpm for 10 min. The samples were analyzed using LC-MS/MS after diluted to a proper concentration by 10 mM ammonium acetate (pH 9.75).
ND means “not determined.”
For orientation: IC50 means the point on the concentration scale where inhibition reaches its midpoint. Consider `O=C(c1nc2cc(C(F)(F)F)ccc2[nH]1)N(CCO)[C@@H]1CCCC[C@H]1OC(F)(F)F` (racemic) [Compound 60, N-(2-hydroxyethyl)-N-((1R,2R)-2-(trifluoromethoxy)cyclohexyl)-5-(trifluoromethyl)-1H-benzo[d]imidazole-2-carboxamide], for which the IC50 lay in the range of 101 to 500 nM.

With `O=C(c1nc2cc(C(F)(F)F)ccc2[nH]1)N(CC(O)CO)c1cccc(Cl)c1Cl` (racemic) [Compound 131, N-(2,3-dichlorophenyl)-N-(2,3-dihydroxypropyl)-5-(trifluoromethyl)-1H-benzo[d]imidazole-2-carboxamide], the IC50 is at most 100 nM.

Regarding `O=C(c1nc2cc(C(O)C3CC3)ccc2[nH]1)N(CCO)c1cccc(Cl)c1Cl` (racemic) [Compound 162], the IC50 was at least 1000 nM.

In the case of `CC1(C)OCC(CN(C(=O)c2nc3cc(C(F)(F)F)ccc3[nH]2)c2cccc(Cl)c2Cl)O1` (racemic) [Compound 173, N-(2,3-dichlorophenyl)-N-((2,2-dimethyl-1,3-dioxolan-4-yl)methyl)-5-(trifluoromethyl)-1H-benzo[d]imidazole-2-carboxamide], the IC50 was at most 100 nM.

Consider `CC(c1cn[nH]c1)c1ccc2[nH]c(C(=O)N(CCO)c3cccc(Cl)c3Cl)nc2c1` (racemic) [Compound 189], for which the IC50 is at most 100 nM.

`O=C(c1nc2cc(Cl)cc(F)c2[nH]1)N(c1cccc(F)c1Cl)C1CCS(=O)(=O)C1` (racemic) [Compound 191]: the IC50 was at most 100 nM.

With `O=C(c1nc2cc(C(F)(F)F)cc(F)c2[nH]1)N(c1cccc(F)c1Cl)C1CCS(=O)(=O)C1` (racemic) [Compound 192], the IC50 was at most 100 nM.

Consider `O=C(c1nc2cc(C3CCCO3)ccc2[nH]1)N(CCO)c1cccc(Cl)c1Cl` (racemic) [Compound 196], for which the IC50 is at most 100 nM.

As for `O=C(c1nc2cc(C(F)(F)F)ccc2[nH]1)N(c1cccc(F)c1Cl)C1CCS(=O)(=O)C1` (racemic) [Compound 228, N-(2-chloro-3-fluorophenyl)-N-(1,1-dioxidotetrahydrothiophen-3-yl)-5-(trifluoromethyl)-1H-benzo[d]imidazole-2-carboxamide], the IC50 is at most 100 nM.

Take `C[S+]([O-])CCCN(C(=O)c1nc2cc(C(F)(F)F)ccc2[nH]1)c1cccc(F)c1Cl` (racemic) [Compound 230, N-(2-chloro-3-fluorophenyl)-N-(3-(methylsulfinyl)propyl)-5-(trifluoromethyl)-1H-benzo[d]imidazole-2-carboxamide]: the IC50 is at most 100 nM.

As to `O=C1NC(CN(C(=O)c2nc3cc(C(F)(F)F)ccc3[nH]2)c2cccc(F)c2Cl)CO1` (racemic) [Compound 238, N-(2-chloro-3-fluorophenyl)-N-((2-oxooxazolidin-4-yl)methyl)-5-(trifluoromethyl)-1H-benzo[d]imidazole-2-carboxamide], the half-inhibitory concentration (IC50) is at most 100 nM.

Consider `CN1CCC(N(C(=O)c2nc3cc(C(F)(F)F)ccc3[nH]2)c2cccc(F)c2Cl)C1=O` (racemic) [Compound 240, N-(2-chloro-3-fluorophenyl)-N-(1-methyl-2-oxopyrrolidin-3-yl)-5-(trifluoromethyl)-1H-benzo[d]imidazole-2-carboxamide], for which the IC50 was at most 100 nM.

Consider `Cc1ccc2[nH]c(C(=O)N(C)c3cccc(Cl)c3Cl)c(CO)c2c1` [Compound 1, N-(2,3-dichlorophenyl)-3-(hydroxymethyl)-N,5-dimethyl-1H-indole-2-carboxamide], for which the IC50 is at most 100 nM.

In the case of `Cc1ccc2[nH]c(C(=O)N(C)c3c(F)cccc3F)c(CO)c2c1` [Compound 2, N-(2,6-difluorophenyl)-3-(hydroxymethyl)-N,5-dimethyl-1H-indole-2-carboxamide], the IC50 was in the range of 501 to 1000 nM.

On to `Cc1ccc2[nH]c(C(=O)N(C)c3ccc(C#N)cc3)c(CO)c2c1` [Compound 3, N-(4-cyanophenyl)-3-(hydroxymethyl)-N,5-dimethyl-1H-indole-2-carboxamide], for which the concentration for half-maximal inhibition (IC50) is at least 1000 nM.

For `Cc1ccc2[nH]c(C(=O)N(C)c3ccccn3)c(CO)c2c1` [Compound 4, 3-(hydroxymethyl)-N,5-dimethyl-N-(pyridin-2-yl)-1H-indole-2-carboxamide], the IC50 was at least 1000 nM.

Take `Cc1ccc2[nH]c(C(=O)N(C)c3c(Cl)cccc3Cl)c(CO)c2c1` [Compound 5, N-(2,6-dichlorophenyl)-3-(hydroxymethyl)-N,5-dimethyl-1H-indole-2-carboxamide]: the IC50 fell in the range of 101 to 500 nM.

Turning to `Cc1ccc2[nH]c(C(=O)N(C)c3ccccc3Cl)c(CO)c2c1` [Compound 6, N-(2-chlorophenyl)-3-(hydroxymethyl)-N,5-dimethyl-1H-indole-2-carboxamide], the IC50 fell in the range of 101 to 500 nM.

Regarding `Cc1ccc2[nH]c(C(=O)N(C)c3ccccc3C#N)c(CO)c2c1` [Compound 7, N-(2-cyanophenyl)-3-(hydroxymethyl)-N,5-dimethyl-1H-indole-2-carboxamide], the IC50 is at least 1000 nM.

Take `Cc1ccc2[nH]c(C(=O)N(C)c3cccc(C#N)c3)c(CO)c2c1` [Compound 8, N-(3-cyanophenyl)-3-(hydroxymethyl)-N,5-dimethyl-1//-indole-2-carboxamide]: the IC50 was at least 1000 nM.

As to `Cc1ccc2[nH]c(C(=O)N(C)c3ccc(C#N)cc3Cl)c(CO)c2c1` [Compound 9, N-(2-chloro-4-cyanophenyl)-3-(hydroxymethyl)-N,5-dimethyl-1H-indole-2-carboxamide], the IC50 is at least 1000 nM.

With `Cc1ccc2[nH]c(C(=O)N(C)c3cccc(C(F)(F)F)c3)c(CO)c2c1` [Compound 10, 3-(hydroxymethyl)-N,5-dimethyl-N-(3-(trifluoromethyl)phenyl)-1H-indole-2-carboxamide], the IC50 was at least 1000 nM.

Turning to `Cc1ccc2[nH]c(C(=O)N(C)c3ccc(Cl)c(C(F)(F)F)c3)c(CO)c2c1` [Compound 11, N-(4-chloro-3-(trifluoromethyl)phenyl)-3-(hydroxymethyl)-N,5-dimethyl-1H-indole-2-carboxamide], the concentration for half-maximal inhibition (IC50) was at least 1000 nM.

Take `Cc1ccc2[nH]c(C(=O)N(C)c3ccc(Cl)c(Cl)c3)c(CO)c2c1` [Compound 12]: the IC50 is at least 1000 nM.

Regarding `COc1ccccc1N(C)C(=O)c1[nH]c2ccc(C)cc2c1CO` [Compound 13, 3-(hydroxymethyl)-N-(2-methoxyphenyl)-N,5-dimethyl-1H-indole-2-carboxamide], the IC50 is at least 1000 nM.

Take `Cc1ccc2[nH]c(C(=O)N(C)C3CCCC3)c(CC(N)=O)c2c1` [Compound 16, 3-(2-amino-2-oxoethyl)-N-cyclopentyl-N,5-dimethyl-1H-indole-2-carboxamide]: the IC50 lay in the range of 501 to 1000 nM.

As for `Cc1ccc2c(CO)c(C(=O)N(C)C3CCCC3)[nH]c2c1` [Compound 17, N-cyclopentyl-3-(hydroxymethyl)-N,6-dimethyl-1H-indole-2-carboxamide], the IC50 was at least 1000 nM.

As to `Cc1ccc2c(c1)c(CO)c(C(=O)N(C)C1C(C)CCC1C)n2C` (stereo not shown) [Compound 18, N-(2,5-dimethylcyclopentyl)-3-(hydroxymethyl)-N,1,5-trimethyl-1H-indole-2-carboxamide], the half-inhibitory concentration (IC50) was at least 1000 nM.

On to `Cc1ccc2[nH]c(C(=O)N(C)c3cc(F)cc(F)c3)c(CO)c2c1` [Compound 19, N-(3,5-difluorophenyl)-3-(hydroxymethyl)-N,5-dimethyl-1H-indole-2-carboxamide], for which the IC50 was at least 1000 nM.

Consider `O=C(c1nc2cc(C(F)(F)F)ccc2[nH]1)N(CCO)c1cnccc1C(F)(F)F` [Compound 20, N-(2-hydroxyethyl)-5-(trifluoromethyl)-N-(4-(trifluoromethyl)pyridin-3-yl)-1H-benzo[d]imidazole-2-carboxamide], for which the IC50 was at most 100 nM.

For `Cc1cccc2[nH]c(C(=O)N(C)C3CCCC3)c(CO)c12` [Compound 21, N-cyclopenty1-3-(hydroxymethyl)-N,4-dimethyl-1H-indole-2-carboxamide], the IC50 is at least 1000 nM.

In the case of `Cc1ccc2[nH]c(C(=O)N(C)c3cccnc3)c(CO)c2c1` [Compound 22, 3-(hydroxymethyl)-N,5-dimethyl-N-(pyridin-3-yl)-1H-indole-2-carboxamide], the IC50 was at least 1000 nM.

With `Cc1ccc2c(CO)c(C(=O)N(C)C3CCCC3)n(CC(N)=O)c2c1` [Compound 23, 1-(2-amino-2-oxoethyl)-N-cyclopentyl-3-(hydroxymethyl)-N,6-dimethyl-1H-indole-2-carboxamide], the IC50 was at least 1000 nM.

With `Cc1ccc2[nH]c(C(=O)N(C)c3cccc(Cl)c3)c(CO)c2c1` [Compound 24, N-(3-chlorophenyl)-3-(hydroxymethyl)-N,5-dimethyl-1H-indole-2-carboxamide], the IC50 was at least 1000 nM.
